Assays:
[1] = competitive isoTOP-ABPP, proteome-wide cysteine reactivity; format: binding, human; details: for proteome reactivity profile, high sensitivity (R>5) cysteine targets: 100 μM LDE, 60 min
Procedure: (§1) Here, we envisioned that isoTOP-ABPP could be advanced to discover and quantify reactions between cysteines in proteomes and any electrophilic compound. In this advanced, ‘competitive’ version of isoTOP-ABPP (FIG. 1a), a proteome is treated with an electrophile (experimental sample) or DMSO (control sample). Both proteomic samples are then labeled with the IA probe and conjugated by CuAAC to light and heavy azide-biotin tags, respectively. The light and heavy samples are then mixed and subjected to our described isoTOP-ABPP protocol for enrichment, identification, and quantification of IA-labeled cysteines^30. Electrophile-modified cysteines are quantified by measuring the MS1 chromatographic peak ratios (R values) for heavy (DMSO-treated) over light (electrophile-treated) samples, with higher R values reflecting greater sensitivity to the electrophile. In this format, competitive isoTOP-ABPP can assay electrophiles against 1000+ cysteines in parallel directly in native proteomes without requiring any chemical modification to the electrophiles themselves.
(§2) Competitive isoTOP-ABPP experiments were performed in quadruplicate using the soluble proteome of the human breast cancer cell line MDA-MB-231 cell line. Proteomes were treated with 100 μM HNE, 15d-PGJ2, or 2-HD, for 60 minutes, followed by the IA-probe (100 μM, 60 min) A total of ˜1400 cysteine reactivities were quantified across the aggregate data set, with at least 900 cysteine reactivities quantified for each LDE (FIG. 2a) more than 750 of which were quantified for all the three electrophiles.
(§3) The MDA-MB-231 cell proteome was treated with varying concentrations of HNE (5, 10, 50, 100 and 500 μM) for 60 min and then the IA-labeling profile of each reaction was quantitatively compared to a DMSO-control sample by isoTOP-ABPP.
By combining the R values at all 5 HNE concentrations, we could extrapolate IC50 values for […] of IA probe-labeling for ˜700 of the 1100 cysteines (FIG. 3a).
(§4) HNE was purchased from EMD biosciences, 15d-PGJ2 was purchased from Cayman Chemicals and 2-HD was purchased from Santa Cruz Biotechnology. Proteome samples were diluted to a 4 mg protein/mL solution in PBS. For each profiling experiment, one aliquot of the proteome sample (0.5 mL) was treated with 100 μM of LDE using 5 μL of a 10 mM stock and the other aliquot was treated with 5 μL of either ethanol (for HNE and 15d-PGJ2) or DMSO (for 2-HD) as control. For the concentration-dependent profiling experiments using HNE, aliquots of the proteomes (0.5 mL each) were treated with 5, 10, 50, 100 and 500 μM of HNE using 5 μL of 0.5, 1.0, 5, 10 and 50 mM of stock solution, respectively. […]

ZAK = ZAK (Homo sapiens, UniProt Q9NYL2); test: competitive isoTOP-ABPP, MDA-MB-231 soluble proteome; format: binding; set-up: directly in native proteomes; endogenous in cells; host or cells: MDA-MB-231; details: 60 min; for R value (isoTOP-ABPP ratio heavy/light) for IA-labeled cysteine of ZAK: 100 μM LDE, peptide FDDLQFFENC*GGGSFGSVYR
Procedure: as §1, §2, §3
as §4, with “respectively. After 60 minutes of treatment at room temperature, both the LDE-treated and control aliquots were passed through a NAP-5 Sephadex column (GE healthcare) to remove any unreacted LDE. The volume of each aliquot was increased to 1 mL with the concentration at 2 mg/mL after this step.” for “respectively.”

Sequence of ZAK (Q9NYL2 whole entry): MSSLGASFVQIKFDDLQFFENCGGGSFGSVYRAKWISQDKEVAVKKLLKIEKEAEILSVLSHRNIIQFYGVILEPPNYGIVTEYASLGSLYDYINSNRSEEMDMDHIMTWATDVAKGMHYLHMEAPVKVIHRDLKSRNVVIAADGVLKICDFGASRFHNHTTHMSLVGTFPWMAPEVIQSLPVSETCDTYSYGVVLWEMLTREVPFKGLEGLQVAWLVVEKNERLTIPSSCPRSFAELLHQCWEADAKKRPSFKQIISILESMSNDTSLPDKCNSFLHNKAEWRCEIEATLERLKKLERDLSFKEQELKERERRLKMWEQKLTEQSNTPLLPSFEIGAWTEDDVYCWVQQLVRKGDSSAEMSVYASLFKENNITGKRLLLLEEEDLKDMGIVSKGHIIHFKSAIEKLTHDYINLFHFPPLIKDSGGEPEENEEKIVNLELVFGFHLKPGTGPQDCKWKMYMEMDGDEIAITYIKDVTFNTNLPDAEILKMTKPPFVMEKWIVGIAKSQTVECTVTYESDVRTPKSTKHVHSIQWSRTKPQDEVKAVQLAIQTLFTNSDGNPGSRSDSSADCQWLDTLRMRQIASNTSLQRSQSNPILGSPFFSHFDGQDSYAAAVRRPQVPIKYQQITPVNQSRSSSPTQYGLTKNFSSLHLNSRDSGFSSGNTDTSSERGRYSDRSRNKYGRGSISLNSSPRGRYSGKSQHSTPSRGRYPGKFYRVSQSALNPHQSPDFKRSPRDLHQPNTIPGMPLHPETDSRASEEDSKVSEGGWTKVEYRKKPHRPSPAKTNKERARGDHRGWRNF

Row | Compound | proteome reactivity profile, high sensitivity (R>5) cysteine targets [1] | R value (isoTOP-ABPP ratio heavy/light) for IA-labeled cysteine of ZAK (ZAK) | IC50 ([1]; ~700 of 1100 cysteines, 5 HNE concentrations, read-out: IC50 for blockade of IA probe-labeling, vast majority of cysteines) | blockade of IA-probe labeling of Cys22 of ZAK (ZAK; 100 μM)
1 | CCCCCCCCCCCCC/C=C/C=O [2-HD, 2-trans-hexadecenal] | no detectable high sensitivity (R>5) targets | 1.05 |  | 
2 | CCCCCC(O)/C=C/C=O (centres unmarked) [4-HNE, 4-Hydroxynonenal] | targeting several cysteines in the proteome | >15 | > 100 µM | completely blocked
3 | CCCCC/C=C/C=C1/C(=O)C=C[C@@H]1C/C=C\CCCC(=O)O [PGJ2, 15-deoxy-Δ12,14-prostaglandin J2] | targeting several cysteines in the proteome | 4.24 |  | 

From patent US10782295B2, “Cysteine-reactive ligand discovery in proteomes” (THE SCRIPPS RESEARCH INSTITUTE, priority 2013, dated 2020)
